In PubChem BioAssay (NCI):
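These data come from cells grown in 96-well plates and exposed to compound for 48 hours at five concentrations. TGI: total growth inhibition.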 Where a SMILES comes first, the peptide text is derived from it. The star is where a group is joined. Boc = CC(C)(C)OC(=O)*

How the values were obtained:
Assay in all cases: growth of human tumour cells (NCI), 48 h
[1] = system: 786-0 renal
[2] = system: A498 renal
[3] = system: A549 NSCLC
[4] = system: CAKI-1 renal
[5] = system: CCRF-CEM leukemia
[6] = system: DU-145 prostate
[7] = system: EKVX NSCLC
[8] = system: KM12 colon
[9] = system: M14 melanoma
[10] = system: NCI-H23 lung
[11] = system: OVCAR-5 ovarian
[12] = system: PC-3 prostate
[13] = system: SF-268 CNS
[14] = system: SF-539 CNS
[15] = system: SK-MEL-5 melanoma
[16] = system: SNB-19 CNS
[17] = system: UO-31 renal
[18] = system: HT29 colon
[19] = system: SR leukemia

Row | Structure (SMILES) | TGI [1] [µM] | TGI [2] [µM] | TGI [3] [µM] | TGI [4] [µM] | TGI [5] [µM] | TGI [6] [µM] | TGI [7] [µM] | TGI [8] [µM] | TGI [9] [µM] | TGI [10] [µM] | TGI [11] [µM] | TGI [12] [µM] | TGI [13] [µM] | TGI [14] [µM] | TGI [15] [µM] | TGI [16] [µM] | TGI [17] [µM] | TGI [18] [µM] | TGI [19] [µM]
1 | CC(C)(C)OC(=O)Nc1cc(-c2ccccc2)co1 | > 100 | > 100 | > 100 | > 100 | > 100 | > 100 | > 100 | > 100 | > 100 | > 100 | > 100 | > 100 | 94.4 | > 100 | > 100 | > 100 | > 100 |  | 
2 | Fc1cc(-c2ncc(Cl)cc2Cl)c2cccccc1-2 | > 100 |  | > 100 | > 100 |  | > 100 | > 100 | > 100 | > 100 | > 100 | > 100 | > 100 | > 100 | > 100 | > 100 | > 100 | > 100 | > 100 | 
3 | CCOCC(NC(=O)C(CC(C)C)NC(=O)OC(C)(C)C)C(N)=O (stereo not drawn) (Boc-Leu-Ser(Et)-NH2; configuration not given here) | > 100 | > 100 | > 100 | > 100 | > 100 | > 100 | > 100 | > 100 | > 100 | > 100 | > 100 | > 100 | > 100 | > 100 | > 100 | > 100 | > 100 | > 100 | 
4 | NC12CC3CC4C1CC1CC2C(C3)C4(N)C1 | > 100 | > 100 | > 100 | > 100 | > 100 | > 100 | > 100 | > 100 | > 100 | > 100 | > 100 | > 100 | > 100 |  | > 100 | > 100 | > 100 | > 100 | 
5 | c1ccc(/N=C2\c3ccccc3CN2c2ccccn2)nc1 | > 100 | > 100 | > 100 | > 100 |  | > 100 | > 100 | > 100 | > 100 | > 100 | > 100 | > 100 | > 100 | > 100 | > 100 | > 100 | > 100 | > 100 | 
6 | Clc1ccc2c(NCCNc3ccnc4cc(Cl)ccc34)ccnc2c1 | 28.2 | 32.2 | 35.6 | 34.8 | 46.2 | 48.2 | 41.4 | 32.5 | 31.2 | 33.2 | 33.3 | 34.5 | 70.6 | 25.3 | 38.1 | 50.2 | 29.1 | 29.5 | 
7 | Cn1c2ccccc2n2c(=O)c3cccnc3c(C#N)c12 | > 100 | > 100 |  | > 100 |  | > 100 | > 100 | > 100 |  | > 100 | > 100 |  | > 100 | > 100 | > 100 |  |  | > 100 | 
8 | Cc1ccc(Nc2nc(=O)[nH]c(=O)[nH]2)cc1N=[N+]=[N-] | > 100 | > 100 | > 100 | > 100 | > 100 | > 100 | > 100 | > 100 | > 100 | > 100 | > 100 |  | > 100 | > 100 | > 100 | > 100 | > 100 | > 100 | > 100
9 | CC(=O)O[C@H]1C(=O)[C@@]2(C)[C@H]([C@H](OC(=O)c3ccccc3)[C@]3(O)C[C@H](OC(=O)[C@H](O)[C@@H](NC(=O)CC(C)C)c4ccccc4)C(C)=C1C3(C)C)[C@]1(OC(C)=O)CO[C@@H]1C[C@@H]2O | > 10 | > 10 | > 10 | > 10 | > 10 | 0.188 | > 10 |  | > 10 | > 10 | > 10 |  | > 10 | 0.196 | > 10 | > 10 | > 10 | 0.0296 | 0.138
10 | CC(Oc1ccc(OCC2CCCCC2)cc1)C(=O)O (centres undefined) | > 100 |  | > 100 |  | > 100 |  |  | > 100 | > 100 | > 100 |  |  | > 100 | > 100 | > 100 |  | > 100 | > 100 | 
11 | CC(=O)NNC(=S)/N=C/c1c(O)cc(C)oc1=O | > 100 |  | > 100 | > 100 |  | > 100 | > 100 | > 100 | > 100 | > 100 | > 100 | > 100 |  | > 100 | > 100 | > 100 | > 100 | > 100 | 
12 | CN(C)CCNC1=CC(=O)c2c(O)ccc(O)c2C1=O | 15.4 | 28 | 27.3 | 27.3 | 11.3 | 26.7 | 25.6 | 21.2 | 12.4 | 18.7 | 27.5 | 21.5 | 28.1 | 20.6 | 3.28 | 31.6 | 17 | 8.75 | 
13 | O=C1CC(c2ccc[nH]2)=NN1c1ccccc1 | > 100 | > 100 | > 100 | > 100 | > 100 | > 100 | > 100 | > 100 | > 100 | > 100 | > 100 | > 100 | > 100 | > 100 | > 100 | > 100 | > 100 | > 100 | 
14 | Nc1nc(N)c2nc(-c3ccco3)cnc2n1 | > 100 | > 100 | > 100 | > 100 | > 100 |  | > 100 | > 100 | > 100 | > 100 | > 100 |  | > 100 | > 100 | > 100 | > 100 | > 100 | > 100 | > 100
